Experimental data published in PubChem BioAssay AID1745844 (Carcinogenic Potency Database (CPDB), 2022).
The source made the active and inactive calls. How the calls were made is not given here.

Test system: rodent lifetime carcinogenesis bioassay, tumor incidence TD50
Assay: chronic cancer bioassays in animals – CPDB, compiled studies (AID 1745844)
[1] = mouse, strain B6AKF1, males, oral dosing, site: liver, lesion: hepatoma, dosed 76 weeks, study length 76 weeks
[2] = mouse, strain B6C3F1, females, oral dosing, site: any site (literature study), lesion: several types, types named in the paper, dosed 76 weeks, study length 76 weeks
[3] = mouse, strain B6C3F1, males, oral dosing, site: any site (literature study), lesion: several types, types named in the paper, dosed 76 weeks, study length 76 weeks
[4] = mouse, strain B6C3F1, males, oral dosing, site: liver, lesion: hepatoma, dosed 76 weeks, study length 76 weeks

Nc1nc(=S)c2ncn([C@H]3C[C@H](O)[C@@H](CO)O3)c2[nH]1
TD50 (mouse, strain B6C3F1, females, i.p., site: any site (literature study), lesion: several types, types named in the paper, dosed 43 weeks, study length 77 weeks): 4.48 mg/kg/day
TD50 (mouse, strain B6C3F1, females, i.p., site: lung, lesion: alveolar/bronchiolar adenoma + alveolar/bronchiolar carcinoma, dosed 43 weeks, study length 77 weeks): 6.87 mg/kg/day
TD50 (rat, strain Sprague-Dawley, females, i.p., site: any site (literature study), lesion: several types, types named in the paper, dosed 52 weeks, study length 78 weeks): 4.11 mg/kg/day
TD50 (rat, strain Sprague-Dawley, females, i.p., site: ear canal, lesion: carcinoma, NOS + squamous-cell carcinoma, dosed 52 weeks, study length 78 weeks): 2.1 mg/kg/day
TD50 (rat, strain Sprague-Dawley, females, i.p., site: ear canal, lesion: squamous-cell carcinoma, dosed 52 weeks, study length 78 weeks): 2.31 mg/kg/day
TD50 (rat, strain Sprague-Dawley, males, i.p., site: all sites, lesion: lymphoma, dosed 52 weeks, study length 78 weeks): 5.75 mg/kg/day
TD50 (rat, strain Sprague-Dawley, males, i.p., site: ear canal, lesion: carcinoma, NOS + squamous-cell carcinoma, dosed 52 weeks, study length 78 weeks): 4.38 mg/kg/day

O=S1(=O)CC=CC1
carcinogen call (mouse, strain B6C3F1, females, by gavage, site: any site (literature study), lesion: several types, types named in the paper, dosed 78 weeks, study length 90 weeks): negative (inactive)
TD50 (mouse, strain B6C3F1, females, by gavage, site: lung, lesion: alveolar/bronchiolar adenoma + alveolar/bronchiolar carcinoma, dosed 78 weeks, study length 90 weeks): 1940 mg/kg/day
TD50 (mouse, strain B6C3F1, males, by gavage, site: any site (literature study), lesion: several types, types named in the paper, dosed 78 weeks, study length 90 weeks): 631 mg/kg/day (inactive)
TD50 (mouse, strain B6C3F1, males, by gavage, site: liver, lesion: hepatocellular adenoma + hepatocellular carcinoma + neoplastic nodule, dosed 78 weeks, study length 90 weeks): 415 mg/kg/day
TD50 (mouse, strain B6C3F1, males, by gavage, site: lung, lesion: alveolar/bronchiolar adenoma + alveolar/bronchiolar carcinoma, dosed 78 weeks, study length 90 weeks): 882 mg/kg/day
TD50 (rat, strain Osborne-Mendel, females, by gavage, site: any site (literature study), lesion: several types, types named in the paper, dosed 78 weeks, study length 111 weeks): 5370 mg/kg/day (inactive)
TD50 (rat, strain Osborne-Mendel, males, by gavage, site: any site (literature study), lesion: several types, types named in the paper, dosed 69 weeks, study length 111 weeks): 30.8 mg/kg/day (inactive)

CCCCCCCCS(=O)C(C)Cc1ccc2c(c1)OCO2 (centres undefined)
TD50 [1]: 88.2 mg/kg/day
carcinogen call (mouse, strain B6C3F1, females, in feed, site: any site (literature study), lesion: several types, types named in the paper, dosed 104 weeks, study length 104 weeks): negative (inactive)
TD50 (mouse, strain B6C3F1, females, in feed, site: liver, lesion: hepatocellular adenoma + hepatocellular carcinoma + neoplastic nodule, dosed 104 weeks, study length 104 weeks): 725 mg/kg/day
TD50 [2]: 100 mg/kg/day
TD50 (mouse, strain B6C3F1, males, in feed, site: any site (literature study), lesion: several types, types named in the paper, dosed 104 weeks, study length 104 weeks): 423 mg/kg/day
TD50 (mouse, strain B6C3F1, males, in feed, site: liver, lesion: hepatocellular adenoma + hepatocellular carcinoma + neoplastic nodule, dosed 104 weeks, study length 104 weeks): 62.2 mg/kg/day
TD50 (mouse, strain B6C3F1, males, in feed, site: liver, lesion: hepatocellular carcinoma, dosed 104 weeks, study length 104 weeks): 62.2 mg/kg/day
TD50 (mouse, strain B6C3F1, males, oral dosing, site: all sites, lesion: reticulum-cell sarcoma, dosed 76 weeks, study length 76 weeks): 9.1 mg/kg/day
TD50 [3]: 7.72 mg/kg/day
TD50 [4]: 45.4 mg/kg/day
TD50 (rat, strain Fischer 344, females, in feed, site: any site (literature study), lesion: several types, types named in the paper, dosed 105 weeks, study length 105 weeks): 2300 mg/kg/day (inactive)
carcinogen call (rat, strain Fischer 344, males, in feed, site: any site (literature study), lesion: several types, types named in the paper, dosed 105 weeks, study length 105 weeks): negative (inactive)
TD50 (rat, strain Fischer 344, males, in feed, site: liver, lesion: hepatocellular adenoma + hepatocellular carcinoma + neoplastic nodule, dosed 105 weeks, study length 105 weeks): 2650 mg/kg/day

CC(C)CCCCCOC(=O)COc1ccc(Cl)cc1Cl
carcinogen call (mouse, strain B6AKF1, females, oral dosing, site: any site (literature study), lesion: several types, types named in the paper, dosed 76 weeks, study length 76 weeks): negative (inactive)
carcinogen call (mouse, strain B6AKF1, females, oral dosing, site: liver, lesion: hepatoma, dosed 76 weeks, study length 76 weeks): negative (inactive)
carcinogen call (mouse, strain B6AKF1, females, oral dosing, site: lung, lesion: adenoma, dosed 76 weeks, study length 76 weeks): negative (inactive)
carcinogen call (mouse, strain B6AKF1, males, oral dosing, site: any site (literature study), lesion: several types, types named in the paper, dosed 76 weeks, study length 76 weeks): negative (inactive)
carcinogen call [1]: negative (inactive)
carcinogen call (mouse, strain B6AKF1, males, oral dosing, site: lung, lesion: several types, types named in the paper, dosed 76 weeks, study length 76 weeks): negative (inactive)
TD50 [2]: 24.6 mg/kg/day (inactive)
carcinogen call (mouse, strain B6C3F1, females, oral dosing, site: liver, lesion: hepatoma, dosed 76 weeks, study length 76 weeks): negative (inactive)
TD50 (mouse, strain B6C3F1, females, oral dosing, site: lung, lesion: adenoma, dosed 76 weeks, study length 76 weeks): 34 mg/kg/day (inactive)
TD50 [3]: 17.7 mg/kg/day (inactive)
TD50 [4]: 31.7 mg/kg/day (inactive)
carcinogen call (mouse, strain B6C3F1, males, oral dosing, site: lung, lesion: several types, types named in the paper, dosed 76 weeks, study length 76 weeks): negative (inactive)

COc1ccc([C@@H]2CC(=O)c3c(O)cc(O[C@@H]4O[C@H](CO[C@@H]5O[C@@H](C)[C@H](O)[C@@H](O)[C@H]5O)[C@@H](O)[C@H](O)[C@H]4O)cc3O2)cc1OC
carcinogen call (mouse, strain B6C3F1, females, in feed, site: liver, lesion: hemangioma, dosed 96 weeks, study length 104 weeks): negative (inactive)
TD50 (mouse, strain B6C3F1, females, in feed, site: liver, lesion: hemangiosarcoma, dosed 96 weeks, study length 104 weeks): 887000 mg/kg/day (inactive)
TD50 (mouse, strain B6C3F1, females, in feed, site: liver, lesion: hepatocellular carcinoma, dosed 96 weeks, study length 104 weeks): 194000 mg/kg/day (inactive)
TD50 (mouse, strain B6C3F1, females, in feed, site: liver, lesion: hyperplastic nodule, dosed 96 weeks, study length 104 weeks): 379000 mg/kg/day (inactive)
carcinogen call (mouse, strain B6C3F1, females, in feed, site: lung, lesion: adenoma, dosed 96 weeks, study length 104 weeks): negative (inactive)
carcinogen call (mouse, strain B6C3F1, males, in feed, site: liver, lesion: hemangioma, dosed 96 weeks, study length 104 weeks): negative (inactive)
TD50 (mouse, strain B6C3F1, males, in feed, site: liver, lesion: hepatocellular carcinoma, dosed 96 weeks, study length 104 weeks): 146000 mg/kg/day (inactive)
TD50 (mouse, strain B6C3F1, males, in feed, site: liver, lesion: hyperplastic nodule, dosed 96 weeks, study length 104 weeks): 416000 mg/kg/day (inactive)
carcinogen call (mouse, strain B6C3F1, males, in feed, site: lung, lesion: adenocarcinoma, dosed 96 weeks, study length 104 weeks): negative (inactive)
carcinogen call (mouse, strain B6C3F1, males, in feed, site: lung, lesion: adenoma, dosed 96 weeks, study length 104 weeks): negative (inactive)
